Values of other authors in patent publication US8252902B2, “Antibody targeting compounds” (The Scripps Research Institute, priority 2001, dated 2012).

Legend:
[1] = tested on: VEGF-mediated angiogenesis
[2] = biological target: VEGFR-2 (Homo sapiens, UniProt P35968)
[3] = tested on: HIV primary isolates and laboratory-adapted strains

Chain of VEGFR-2 (P35968 20-1356, species assumed): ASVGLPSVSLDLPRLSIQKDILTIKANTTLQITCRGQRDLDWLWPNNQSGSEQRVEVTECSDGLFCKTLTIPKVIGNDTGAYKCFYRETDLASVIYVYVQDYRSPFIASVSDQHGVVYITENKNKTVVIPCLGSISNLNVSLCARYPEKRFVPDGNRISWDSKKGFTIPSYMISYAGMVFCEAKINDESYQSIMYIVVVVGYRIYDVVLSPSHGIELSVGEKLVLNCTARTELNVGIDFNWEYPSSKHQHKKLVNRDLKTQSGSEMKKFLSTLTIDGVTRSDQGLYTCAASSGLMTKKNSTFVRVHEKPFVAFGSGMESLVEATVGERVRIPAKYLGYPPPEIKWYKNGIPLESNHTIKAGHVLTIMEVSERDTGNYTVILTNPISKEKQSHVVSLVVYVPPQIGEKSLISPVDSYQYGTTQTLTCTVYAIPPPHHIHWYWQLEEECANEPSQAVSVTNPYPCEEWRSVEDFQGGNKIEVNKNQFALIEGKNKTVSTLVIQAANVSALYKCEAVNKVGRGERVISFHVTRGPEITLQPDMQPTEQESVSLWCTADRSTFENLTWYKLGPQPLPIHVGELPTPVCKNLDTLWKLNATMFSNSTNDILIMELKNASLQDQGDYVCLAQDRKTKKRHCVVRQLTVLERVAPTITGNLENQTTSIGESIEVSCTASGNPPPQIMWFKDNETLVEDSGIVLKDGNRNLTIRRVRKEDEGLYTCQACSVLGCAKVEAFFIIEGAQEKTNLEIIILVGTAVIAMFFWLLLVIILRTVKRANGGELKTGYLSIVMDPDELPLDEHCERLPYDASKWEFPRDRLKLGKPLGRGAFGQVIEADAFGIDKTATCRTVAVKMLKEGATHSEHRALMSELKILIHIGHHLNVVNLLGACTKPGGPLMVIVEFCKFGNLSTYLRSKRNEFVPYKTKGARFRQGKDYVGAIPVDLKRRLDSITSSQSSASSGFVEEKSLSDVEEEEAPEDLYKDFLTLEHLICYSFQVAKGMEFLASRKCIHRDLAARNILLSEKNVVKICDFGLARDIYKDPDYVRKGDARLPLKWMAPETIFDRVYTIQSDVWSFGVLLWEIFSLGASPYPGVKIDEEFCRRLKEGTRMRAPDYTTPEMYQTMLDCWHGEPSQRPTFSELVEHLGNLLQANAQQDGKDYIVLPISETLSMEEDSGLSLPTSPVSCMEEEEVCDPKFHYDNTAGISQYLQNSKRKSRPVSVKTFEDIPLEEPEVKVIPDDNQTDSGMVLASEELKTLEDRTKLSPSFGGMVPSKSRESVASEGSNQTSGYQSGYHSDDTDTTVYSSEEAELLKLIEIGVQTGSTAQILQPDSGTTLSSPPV

Row | Compound | inhibition of VEGF-mediated angiogenesis [1] | interference with VEGF binding to VEGFR-2 [2] | anti-HIV activity [3]
1 | ATWLPPR (homo sapiens) [ATWLPPR (SEQ ID NO: 2)] | inhibited | effectively interfered | –
2 | C=C(C)[C@@H]1CC[C@]2(C(=O)NCCCCCCCC(=O)N[C@@H](CC(C)C)[C@H](O)CC(=O)O)CC[C@]3(C)[C@H](CC[C@@H]4[C@@]5(C)CC[C@H](O)C(C)(C)[C@@H]5CC[C@]43C)[C@@H]12 [IC9564] | – | – | can inhibit both HIV primary isolates and laboratory-adapted strains
